Measured values taken from ChEMBL document CHEMBL5291721, “A preclinical secondary pharmacology resource illuminates target-adverse drug reaction associations of marketed drugs” (Nat Commun, 2023).

How the values were obtained:
Androgen receptor = biological target: T1, Androgen receptor (Homo sapiens, UniProt P10275)
T1 sequence (P10275 whole entry): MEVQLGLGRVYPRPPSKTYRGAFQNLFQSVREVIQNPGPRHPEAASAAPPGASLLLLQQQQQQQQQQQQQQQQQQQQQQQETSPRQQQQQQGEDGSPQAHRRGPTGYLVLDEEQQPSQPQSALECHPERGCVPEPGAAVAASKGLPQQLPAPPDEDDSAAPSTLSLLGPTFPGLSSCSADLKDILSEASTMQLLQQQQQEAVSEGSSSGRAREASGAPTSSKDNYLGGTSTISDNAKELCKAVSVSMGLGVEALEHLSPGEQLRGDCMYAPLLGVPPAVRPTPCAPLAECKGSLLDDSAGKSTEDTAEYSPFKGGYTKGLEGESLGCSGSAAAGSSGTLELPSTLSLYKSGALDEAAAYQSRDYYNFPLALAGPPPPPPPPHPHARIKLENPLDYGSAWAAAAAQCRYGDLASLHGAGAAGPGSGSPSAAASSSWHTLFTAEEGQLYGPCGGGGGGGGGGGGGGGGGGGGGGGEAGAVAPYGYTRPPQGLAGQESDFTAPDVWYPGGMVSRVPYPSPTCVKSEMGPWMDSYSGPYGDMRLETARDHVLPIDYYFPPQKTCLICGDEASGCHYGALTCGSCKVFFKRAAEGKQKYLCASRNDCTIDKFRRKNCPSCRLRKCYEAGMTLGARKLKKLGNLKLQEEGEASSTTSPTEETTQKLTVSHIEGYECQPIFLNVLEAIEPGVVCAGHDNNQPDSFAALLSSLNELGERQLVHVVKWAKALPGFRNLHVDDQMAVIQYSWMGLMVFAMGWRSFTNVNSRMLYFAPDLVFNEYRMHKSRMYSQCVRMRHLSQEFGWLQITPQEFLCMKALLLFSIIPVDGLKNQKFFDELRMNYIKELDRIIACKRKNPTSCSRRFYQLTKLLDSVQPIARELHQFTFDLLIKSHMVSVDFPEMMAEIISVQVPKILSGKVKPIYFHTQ

[1] = biological target: Gamma-aminobutyric acid receptor subunit alpha-1 (Rattus norvegicus, UniProt P62813)
[2] = biological target: T2, Muscarinic acetylcholine receptor M1 (Homo sapiens, UniProt P11229); type: functional, cell-based
T2 sequence (P11229 whole entry): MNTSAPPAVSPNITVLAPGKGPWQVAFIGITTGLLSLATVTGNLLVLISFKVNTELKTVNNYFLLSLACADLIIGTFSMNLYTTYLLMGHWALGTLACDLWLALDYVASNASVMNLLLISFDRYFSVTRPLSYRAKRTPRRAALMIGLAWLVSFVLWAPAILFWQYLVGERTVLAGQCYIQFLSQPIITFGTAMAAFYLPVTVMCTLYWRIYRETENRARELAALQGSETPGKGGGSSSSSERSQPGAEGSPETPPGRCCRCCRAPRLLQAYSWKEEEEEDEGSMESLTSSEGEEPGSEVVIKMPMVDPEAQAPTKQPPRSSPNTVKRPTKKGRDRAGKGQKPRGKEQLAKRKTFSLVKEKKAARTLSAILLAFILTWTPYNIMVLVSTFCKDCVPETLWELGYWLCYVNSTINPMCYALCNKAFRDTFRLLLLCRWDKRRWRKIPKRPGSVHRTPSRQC

[3] = biological target: Gamma-aminobutyric acid receptor subunit alpha-1/alpha-2/beta-2/gamma-2 (Homo sapiens, UniProt P14867+P18507+P47869+P47870); type: protein-complex assay
[4] = biological target: T2, Muscarinic acetylcholine receptor M1; type: functional, cell-based; remark: listed apart in the source
[5] = biological target: 5-hydroxytryptamine receptor 2B (Homo sapiens, UniProt P41595); type: functional, cell-based
[6] = biological target: T2, Muscarinic acetylcholine receptor M1; type: functional
Histamine H1 receptor = Histamine H1 receptor (Homo sapiens, UniProt P35367)
[7] = biological target: 5-hydroxytryptamine receptor 2A (Homo sapiens, UniProt P28223); type: functional, cell-based
[8] = biological target: 3',5'-cyclic-AMP phosphodiesterase 4D (Homo sapiens, UniProt Q08499); type: functional
D(3) dopamine receptor = D(3) dopamine receptor (Homo sapiens, UniProt P35462)
Cannabinoid receptor 1 [9] = biological target: T3, Cannabinoid receptor 1 (Homo sapiens, UniProt P21554); type: functional, cell-based
[10] = biological target: T4, 5-hydroxytryptamine receptor 3A (Homo sapiens, UniProt P46098); type: functional
T4 sequence (P46098 whole entry): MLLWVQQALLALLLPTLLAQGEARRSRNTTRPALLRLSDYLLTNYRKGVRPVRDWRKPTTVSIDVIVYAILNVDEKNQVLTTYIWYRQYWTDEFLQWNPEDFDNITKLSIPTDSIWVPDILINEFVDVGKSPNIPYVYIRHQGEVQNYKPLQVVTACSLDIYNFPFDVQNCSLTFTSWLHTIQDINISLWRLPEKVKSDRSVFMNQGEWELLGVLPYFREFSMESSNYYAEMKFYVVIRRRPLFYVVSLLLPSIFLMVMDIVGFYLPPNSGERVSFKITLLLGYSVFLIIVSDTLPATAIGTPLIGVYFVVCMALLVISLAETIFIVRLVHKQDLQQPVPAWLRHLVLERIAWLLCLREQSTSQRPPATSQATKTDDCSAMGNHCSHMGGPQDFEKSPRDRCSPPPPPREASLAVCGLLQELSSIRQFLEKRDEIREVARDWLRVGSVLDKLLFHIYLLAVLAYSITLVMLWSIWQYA

Histamine H2 receptor = Histamine H2 receptor (Homo sapiens, UniProt P25021); type: functional, cell-based
Cannabinoid receptor 1 [11] = biological target: T3, Cannabinoid receptor 1; type: functional, cell-based; remark: listed apart in the source
Also: assay procedure not described here.

Gamma-aminobutyric acid receptor subunit alpha-1/alpha-2/beta-2/gamma-2, sequence (P14867 whole entry): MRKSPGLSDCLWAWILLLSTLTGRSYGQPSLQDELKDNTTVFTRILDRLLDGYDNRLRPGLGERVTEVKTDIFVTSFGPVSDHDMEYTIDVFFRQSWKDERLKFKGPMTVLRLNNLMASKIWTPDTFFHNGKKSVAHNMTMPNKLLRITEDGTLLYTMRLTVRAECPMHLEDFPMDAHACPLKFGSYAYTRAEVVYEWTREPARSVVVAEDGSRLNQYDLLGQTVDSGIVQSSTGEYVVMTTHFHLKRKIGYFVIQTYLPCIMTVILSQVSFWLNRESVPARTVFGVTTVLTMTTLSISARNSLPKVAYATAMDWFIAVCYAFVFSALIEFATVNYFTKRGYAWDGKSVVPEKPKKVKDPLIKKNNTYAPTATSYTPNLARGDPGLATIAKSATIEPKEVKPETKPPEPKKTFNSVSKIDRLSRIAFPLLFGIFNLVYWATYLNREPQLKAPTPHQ
Gamma-aminobutyric acid receptor subunit alpha-1/alpha-2/beta-2/gamma-2, sequence (P47870 whole entry): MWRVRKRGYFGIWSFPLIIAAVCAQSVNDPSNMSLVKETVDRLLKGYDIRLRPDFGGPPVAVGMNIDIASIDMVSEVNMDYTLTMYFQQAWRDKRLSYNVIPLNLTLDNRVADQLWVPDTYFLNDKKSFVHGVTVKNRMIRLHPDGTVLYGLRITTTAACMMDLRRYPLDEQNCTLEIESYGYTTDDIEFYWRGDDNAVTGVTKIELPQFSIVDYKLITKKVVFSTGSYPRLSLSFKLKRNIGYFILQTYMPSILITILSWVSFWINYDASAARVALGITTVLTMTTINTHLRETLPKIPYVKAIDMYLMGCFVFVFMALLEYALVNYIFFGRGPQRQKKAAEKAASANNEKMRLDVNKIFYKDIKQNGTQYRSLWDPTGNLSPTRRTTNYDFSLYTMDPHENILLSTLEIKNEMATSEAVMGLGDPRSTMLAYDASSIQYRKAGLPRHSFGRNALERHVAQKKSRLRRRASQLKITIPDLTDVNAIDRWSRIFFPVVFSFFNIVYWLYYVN
Gamma-aminobutyric acid receptor subunit alpha-1/alpha-2/beta-2/gamma-2, sequence (P18507 whole entry): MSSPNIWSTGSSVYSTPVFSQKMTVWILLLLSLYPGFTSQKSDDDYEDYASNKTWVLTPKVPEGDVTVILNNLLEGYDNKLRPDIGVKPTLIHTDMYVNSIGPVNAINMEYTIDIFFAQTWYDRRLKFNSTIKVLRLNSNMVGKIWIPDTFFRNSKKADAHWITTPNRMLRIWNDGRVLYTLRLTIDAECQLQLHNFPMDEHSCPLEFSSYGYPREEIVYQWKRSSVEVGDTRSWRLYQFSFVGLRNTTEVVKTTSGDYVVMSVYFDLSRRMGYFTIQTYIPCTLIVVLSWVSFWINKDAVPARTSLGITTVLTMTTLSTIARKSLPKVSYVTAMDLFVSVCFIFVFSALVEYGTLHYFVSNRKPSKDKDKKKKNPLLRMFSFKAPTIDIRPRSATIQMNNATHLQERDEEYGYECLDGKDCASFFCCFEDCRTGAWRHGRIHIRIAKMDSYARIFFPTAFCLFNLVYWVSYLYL
Gamma-aminobutyric acid receptor subunit alpha-1/alpha-2/beta-2/gamma-2, sequence (P47869 whole entry): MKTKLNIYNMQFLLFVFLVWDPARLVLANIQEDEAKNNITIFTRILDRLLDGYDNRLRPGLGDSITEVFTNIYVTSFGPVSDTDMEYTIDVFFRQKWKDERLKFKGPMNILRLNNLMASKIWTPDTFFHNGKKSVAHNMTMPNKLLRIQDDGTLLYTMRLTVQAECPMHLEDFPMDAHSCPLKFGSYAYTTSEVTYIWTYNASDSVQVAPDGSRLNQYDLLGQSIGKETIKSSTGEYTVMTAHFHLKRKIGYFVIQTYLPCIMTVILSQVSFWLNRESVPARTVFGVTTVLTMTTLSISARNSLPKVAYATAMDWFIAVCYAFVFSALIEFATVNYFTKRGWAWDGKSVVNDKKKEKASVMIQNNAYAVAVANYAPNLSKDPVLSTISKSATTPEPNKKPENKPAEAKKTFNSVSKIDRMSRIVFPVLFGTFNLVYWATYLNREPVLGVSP
5-hydroxytryptamine receptor 2B, sequence (P41595 whole entry): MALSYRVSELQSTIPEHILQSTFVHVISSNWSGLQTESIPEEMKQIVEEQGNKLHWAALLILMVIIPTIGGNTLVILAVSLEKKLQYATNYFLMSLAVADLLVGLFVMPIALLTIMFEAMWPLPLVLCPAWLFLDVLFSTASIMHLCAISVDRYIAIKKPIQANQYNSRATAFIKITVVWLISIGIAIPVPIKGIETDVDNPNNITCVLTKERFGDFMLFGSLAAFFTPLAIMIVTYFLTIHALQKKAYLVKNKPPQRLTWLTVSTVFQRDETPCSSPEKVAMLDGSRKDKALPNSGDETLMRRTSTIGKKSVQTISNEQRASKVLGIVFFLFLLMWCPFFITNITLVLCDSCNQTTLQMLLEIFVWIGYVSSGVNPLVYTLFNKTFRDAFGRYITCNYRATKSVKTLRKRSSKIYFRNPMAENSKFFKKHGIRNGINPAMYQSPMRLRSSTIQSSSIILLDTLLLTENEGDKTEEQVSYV
5-hydroxytryptamine receptor 2A, sequence (P28223 whole entry): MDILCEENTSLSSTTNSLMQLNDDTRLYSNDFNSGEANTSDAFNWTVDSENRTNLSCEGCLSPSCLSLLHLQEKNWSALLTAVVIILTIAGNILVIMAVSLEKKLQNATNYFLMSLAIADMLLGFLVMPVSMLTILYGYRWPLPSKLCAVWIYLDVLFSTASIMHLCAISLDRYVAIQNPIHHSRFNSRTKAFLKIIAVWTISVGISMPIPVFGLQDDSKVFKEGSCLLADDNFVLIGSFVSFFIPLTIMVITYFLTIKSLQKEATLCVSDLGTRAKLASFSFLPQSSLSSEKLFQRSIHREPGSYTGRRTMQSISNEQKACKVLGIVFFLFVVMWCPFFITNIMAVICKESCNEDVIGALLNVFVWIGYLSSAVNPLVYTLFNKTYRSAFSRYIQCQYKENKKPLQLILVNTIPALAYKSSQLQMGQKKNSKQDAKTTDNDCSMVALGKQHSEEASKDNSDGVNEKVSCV
Histamine H1 receptor, sequence (P35367 whole entry): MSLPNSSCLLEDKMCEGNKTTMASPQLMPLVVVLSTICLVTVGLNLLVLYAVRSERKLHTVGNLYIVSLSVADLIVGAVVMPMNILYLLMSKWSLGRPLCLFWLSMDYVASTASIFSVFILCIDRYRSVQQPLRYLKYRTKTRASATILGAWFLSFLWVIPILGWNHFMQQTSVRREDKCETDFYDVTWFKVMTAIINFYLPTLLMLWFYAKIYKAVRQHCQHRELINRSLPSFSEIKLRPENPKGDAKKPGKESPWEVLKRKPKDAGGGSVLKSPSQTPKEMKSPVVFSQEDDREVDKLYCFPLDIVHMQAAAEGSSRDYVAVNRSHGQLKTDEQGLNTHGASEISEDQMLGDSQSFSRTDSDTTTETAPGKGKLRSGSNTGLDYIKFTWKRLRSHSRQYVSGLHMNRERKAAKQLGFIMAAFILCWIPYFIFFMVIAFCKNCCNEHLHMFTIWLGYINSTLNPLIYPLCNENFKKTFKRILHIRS
T3 sequence (P21554 whole entry): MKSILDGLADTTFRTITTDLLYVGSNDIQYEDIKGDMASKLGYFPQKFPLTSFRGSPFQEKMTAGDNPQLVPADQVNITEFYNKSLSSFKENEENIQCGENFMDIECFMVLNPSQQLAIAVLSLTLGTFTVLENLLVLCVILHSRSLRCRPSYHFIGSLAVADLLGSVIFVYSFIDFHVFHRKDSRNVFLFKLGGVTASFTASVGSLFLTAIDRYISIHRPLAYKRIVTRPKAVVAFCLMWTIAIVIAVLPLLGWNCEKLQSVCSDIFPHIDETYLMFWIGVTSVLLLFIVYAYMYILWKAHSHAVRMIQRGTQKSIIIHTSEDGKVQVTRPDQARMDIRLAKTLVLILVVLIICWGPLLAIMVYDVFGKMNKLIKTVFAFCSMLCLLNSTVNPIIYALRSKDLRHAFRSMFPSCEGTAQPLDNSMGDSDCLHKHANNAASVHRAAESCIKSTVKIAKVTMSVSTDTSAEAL
Histamine H2 receptor, sequence (P25021 whole entry): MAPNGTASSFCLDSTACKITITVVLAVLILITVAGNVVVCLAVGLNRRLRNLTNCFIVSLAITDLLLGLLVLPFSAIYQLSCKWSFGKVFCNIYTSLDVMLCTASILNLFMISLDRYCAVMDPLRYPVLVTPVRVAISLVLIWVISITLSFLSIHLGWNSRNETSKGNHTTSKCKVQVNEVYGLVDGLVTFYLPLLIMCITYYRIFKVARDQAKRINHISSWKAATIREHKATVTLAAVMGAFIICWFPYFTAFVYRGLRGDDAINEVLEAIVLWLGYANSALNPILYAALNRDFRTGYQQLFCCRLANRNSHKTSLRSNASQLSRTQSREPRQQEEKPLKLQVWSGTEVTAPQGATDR
Gamma-aminobutyric acid receptor subunit alpha-1, sequence (P62813 whole entry): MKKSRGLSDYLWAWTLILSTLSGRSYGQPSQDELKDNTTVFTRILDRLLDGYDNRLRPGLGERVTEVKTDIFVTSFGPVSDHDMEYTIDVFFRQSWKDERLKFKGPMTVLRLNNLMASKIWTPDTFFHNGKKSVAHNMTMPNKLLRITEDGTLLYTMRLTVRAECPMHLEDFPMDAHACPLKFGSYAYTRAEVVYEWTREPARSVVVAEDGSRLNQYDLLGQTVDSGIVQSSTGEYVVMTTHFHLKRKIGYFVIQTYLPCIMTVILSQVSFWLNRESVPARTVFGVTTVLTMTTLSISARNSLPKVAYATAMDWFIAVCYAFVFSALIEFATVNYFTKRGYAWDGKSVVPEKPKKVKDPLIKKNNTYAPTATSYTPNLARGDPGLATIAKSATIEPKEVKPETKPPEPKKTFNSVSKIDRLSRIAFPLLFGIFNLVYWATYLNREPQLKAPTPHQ

Compound | AC50 (Androgen receptor) | AC50 [1] | AC50 [2] | AC50 [3] | AC50 [4] | other results
C[C@@H](O)[C@H]1C(=O)N2C(C(=O)O)=C(S[C@@H]3CN[C@H](C(=O)Nc4cccc(C(=O)O)c4)C3)[C@H](C)[C@H]12 | > 30 µM | > 30 µM | – | – | – | –
Cc1cnc(C(=O)O)c[n+]1[O-] [ACIPIMOX] | – | – | > 30 µM | > 30 µM | > 30 µM | –
Nc1ccc(C(=O)NCC(=O)O)cc1 [AMINOHIPPURIC ACID] | – | – | > 30 µM | > 30 µM | > 30 µM | –
CC1(C)S[C@@H]2[C@H](NC(=O)[C@H](NC(=O)c3cnc4cccnc4c3O)c3ccccc3)C(=O)N2[C@H]1C(=O)O [APALCILLIN] | > 30 µM | 1.25 µM | > 30 µM | – | > 30 µM | –
OCc1ccccc1 [BENZYL ALCOHOL] | > 30 µM | – | – | > 30 µM | – | –
C[C@H]1C[C@H]2[C@@H]3CCC4=CC(=O)C=C[C@]4(C)[C@@]3(F)[C@@H](O)C[C@]2(C)[C@@]1(O)C(=O)CO [BETAMETHASONE] | – | – | – | > 30 µM | – | –
O=c1[nH]c(=O)n([C@H]2C[C@H](O)[C@@H](CO)O2)cc1/C=C/Br [BRIVUDINE] | – | – | > 30 µM | > 30 µM | > 30 µM | –
CC(C)(C)NCC(O)COc1ccccc1C#N (stereo not given) [BUNITROLOL] | > 30 µM | > 30 µM | > 30 µM | – | > 30 µM | AC50 [5]: > 30 µM; AC50 [6]: > 30 µM; AC50 (Histamine H1 receptor): > 30 µM; AC50 [7]: > 30 µM; AC50 [8]: > 30 µM; AC50 (D(3) dopamine receptor): > 30 µM; AC50 (Cannabinoid receptor 1 [9]): > 30 µM; AC50 [10]: > 30 µM; AC50 (Histamine H2 receptor): > 30 µM; AC50 (Cannabinoid receptor 1 [11]): > 30 µM
O=NN(CCCl)C(=O)NCCCl [CARMUSTINE] | > 30 µM | > 30 µM | – | – | – | –
Nc1ccn(C[C@@H](CO)OCP(=O)(O)O)c(=O)n1 [CIDOFOVIR] | – | – | > 30 µM | > 30 µM | > 30 µM | –
CC1(C)C[C@@H]1C(=O)N/C(=C\CCCCSC[C@H](N)C(=O)O)C(=O)O [CILASTATIN] | > 30 µM | > 30 µM | > 30 µM | – | > 30 µM | –
COc1c(OCCCN2CCOCC2)ccc2c1N=C(NC(=O)c1cnc(N)nc1)N1CCN=C21 [COPANLISIB] | > 30 µM | > 30 µM | > 30 µM | – | > 30 µM | –
CC(=O)OCC(=O)[C@@]1(OC(C)=O)[C@@H](C)C[C@H]2[C@@H]3C[C@H](F)C4=CC(=O)C=C[C@]4(C)[C@@]3(F)[C@@H](O)C[C@@]21C [DIFLORASONE DIACETATE] | – | – | – | > 30 µM | – | –
CCCCC(=O)O[C@H]1CC[C@H]2[C@@H]3CCc4cc(O)ccc4[C@H]3CC[C@]12C [ESTRADIOL VALERATE] | – | – | > 30 µM | > 10 µM | 23.1 µM | –
CCOc1ccc(Cc2nccc3cc(OCC)c(OCC)cc23)cc1OCC [ETHAVERINE] | > 30 µM | > 30 µM | > 30 µM | – | 1.66 µM | –
CCn1c(=O)c2c(nc(/C=C/c3ccc(OC)c(OC)c3)n2C)n(CC)c1=O [ISTRADEFYLLINE] | – | – | > 30 µM | > 30 µM | > 30 µM | AC50 [6]: > 30 µM; AC50 (Histamine H1 receptor): > 30 µM; AC50 [7]: > 30 µM; AC50 [8]: 1.8 µM
Cc1ccc(Cl)c(Nc2ccccc2C(=O)O)c1Cl [MECLOFENAMIC ACID] | – | – | – | > 3 µM | – | –

Compound | AC50 (Androgen receptor) | AC50 [1] | AC50 [2] | AC50 [3] | AC50 [4] | other results
CC(O)(CC(=O)O)CC(=O)O [MEGLUTOL] | > 30 µM | > 30 µM | > 30 µM | – | 9.87 µM | –
CN1CCCC(CC2c3ccccc3Sc3ccccc32)C1 (stereo not given) [METHIXENE] | – | – | > 30 µM | > 30 µM | 0.0109 µM | –
NC(=O)N/N=C/c1ccc([N+](=O)[O-])o1 [NITROFURAZONE] | – | > 30 µM | > 30 µM | > 30 µM | > 30 µM | –
C#C[C@]1(OC(C)=O)CC[C@H]2[C@@H]3CCC4=CC(=O)CC[C@@H]4[C@H]3CC[C@@]21C [NORETHINDRONE ACETATE] | – | – | – | > 10 µM | – | –
COc1ccc(C(=O)c2ccccc2)c(O)c1 [OXYBENZONE] | > 30 µM | > 30 µM | > 30 µM | – | > 10 µM | AC50 [5]: > 30 µM; AC50 [6]: > 30 µM; AC50 (Histamine H1 receptor): 17 µM; AC50 [7]: > 30 µM; AC50 [8]: 26 µM; AC50 (D(3) dopamine receptor): > 30 µM; AC50 (Cannabinoid receptor 1 [9]): > 30 µM; AC50 [10]: > 30 µM; AC50 (Histamine H2 receptor): > 30 µM; AC50 (Cannabinoid receptor 1 [11]): > 30 µM
OC(CN1CCCCC1)c1cc(-c2ccccc2)on1 (stereo not given) [PERISOXAL] | > 30 µM | > 30 µM | – | – | – | –
Cc1c(C(C)C)c(=O)n(-c2ccccc2)n1C [PROPYPHENAZONE] | – | – | > 30 µM | > 30 µM | > 30 µM | –
Cc1ncc(CO)c(CO)c1O [PYRIDOXINE] | – | > 30 µM | > 30 µM | > 30 µM | > 30 µM | –
C[C@@H]1CN(c2c(F)c(N)c3c(=O)c(C(=O)O)cn(C4CC4)c3c2F)C[C@H](C)N1 [SPARFLOXACIN] | – | – | – | > 30 µM | – | –
COc1ncnc(NS(=O)(=O)c2ccc(N)cc2)c1OC [SULFADOXINE] | – | > 30 µM | – | > 30 µM | – | –
[H]/N=C(/N)NS(=O)(=O)c1ccc(N)cc1 [SULFAGUANIDINE] | > 30 µM | > 30 µM | > 30 µM | – | > 30 µM | –
CC(C)N1CCN(c2ccc(OCC3COC(Cn4cncn4)(c4ccc(Cl)cc4Cl)O3)cc2)CC1 (stereo not given) [TERCONAZOLE] | – | – | – | > 30 µM | – | –
Cc1ccc(O)c([C@H](CCN(C(C)C)C(C)C)c2ccccc2)c1 [TOLTERODINE] | – | > 30 µM | > 30 µM | > 30 µM | 0.0206 µM | AC50 [5]: > 10 µM; AC50 [6]: 0.0051 µM; AC50 (Histamine H1 receptor): 4.06 µM; AC50 (D(3) dopamine receptor): > 10 µM; AC50 (Cannabinoid receptor 1 [9]): > 30 µM; AC50 [10]: > 10 µM; AC50 (Histamine H2 receptor): > 10 µM; AC50 (Cannabinoid receptor 1 [11]): > 30 µM
COc1cc(C[C@@H]2NCCc3cc(O)c(O)cc32)cc(OC)c1OC [TRETOQUINOL] | – | – | > 30 µM | > 30 µM | > 30 µM | –
NS(=O)(=O)c1cc2c(cc1Cl)NC(C(Cl)Cl)NS2(=O)=O (stereo not given) [TRICHLORMETHIAZIDE] | – | – | – | > 30 µM | – | –
CC(CN(C)C)CN1c2ccccc2CCc2ccccc21 (stereo not given) [TRIMIPRAMINE] | – | – | – | > 30 µM | – | –
CC(=O)O[C@]1(C(C)=O)CC[C@H]2[C@@H]3CCC4=CC(=O)CCC4=C3[C@@H](c3ccc(N(C)C)cc3)C[C@@]21C [ULIPRISTAL ACETATE] | 0.03 µM | > 30 µM | > 30 µM | – | > 30 µM | –
